Reference: patent US20260286302A1, “METHODS FOR PRODUCING A SUPER CENTRAL MEMORY CD8 T CELL SUBTYPE BY POLY(ADP-RIBOSE) POLYMERASE (PARP) INHIBITION AND USES THEREOF” (Georgetown University, priority 2023, published 2026)

Tests used:
TC-1 tumors = assay: TC-1 tumor model: tumor growth and survival; type: in vivo, mouse; settings: for mice survived: TC-1 tumor model, day 22
Protocol: C57BL/6J mice were injected with 7×10^4 TC-1 cells per mouse or 1×10^5B16F10 cells per mouse in the right flank. Treatment in respective groups was started when tumors reached an average size of approximately 0.075 cm^3. […] Mice were treated daily with IP injection at a dose of 50 mg kg-1.
For vaccination, TC-1-specific E7 peptide (a nine amino acid peptide, […] (SEQ ID NO: 1); 100 μg per mouse per 100 μl; Celtak Bioscience) or B16-specific gp10025-33 nonamer peptide ([…] (SEQ ID NO: 2); 100 μg per mouse per 100 μl; AnaSpec) were used. Both the vaccines were mixed with a small 13-mer nonnatural pan-HLA DR-binding epitope (PADRE (SEQ ID NO: 3); aK-Cha-[…]a (SEQ ID NO: 4), where ‘a’ is d-alanine, and ‘Cha’ is 1-cyclohexylalanine, T helper epitope, 20 μg per mouse; Celtak Bioscience) and QuilA (adjuvant, 10 μg per mouse; Brenntag). For survival and therapy experiments, mice were vaccinated three times, starting at an average tumor size of 0.07 cm^3, while for immune response experiments mice were vaccinated twice with a one-week interval between vaccinations. Tumors were measured every 3-4 days using a digital vernier caliper, and the tumor volume was calculated using the formula: V=L×W2/2000, where V is tumor volume, L is the length of the tumor (longer diameter) and W is the width of the tumor (shorter diameter). Mice were monitored for tumor growth and survival. Mice were euthanized when the tumor volume reached 1.5 cm^3.

[1] = system: CD8 T cells of patients with recurrent ovarian cancer; assay: PBMC of ovarian cancer patients pre and post treatment; type: in vivo, human
Protocol: Peripheral blood mononuclear cells (PBMCs) were isolated from whole blood collected in cell preparation tubes (CPT) with sodium citrate and viably frozen until analysis. After thawing, PBMCs were washed with flow buffer (5% BSA, 2 mM EDTA in PBS), incubated with Fc receptor blocking reagent (Miltenyi Biotec) and stained with monoclonal antibodies for 20-30 min at 4° C. For staining for Ki-67 and Granzyme B, cells were fixed and permeabilized using a Fix/Perm buffer (eBiosciences) according to the manufacturer's instructions. Dead cells were excluded from the analysis by using the viability dye, LIVE/DEAD Fixable (Life Technologies). All assays were performed using multiparametric flow cytometry (MACSQuant; Miltenyi Biotec). Data were analyzed using FlowJo software v.10.6.1 (FlowJo, LLC). Flow cytometric data were quantified either as the median fluorescence intensity or as a percentage of cells, as indicated.

[2] = system: CD8+ T cells in TME of TC-1 tumors; assay: Immune profiling of the TME, TC-1 tumor-bearing mice; type: in vivo, mouse
From the text: Two-to-three days after the second vaccination, mice in the various groups were euthanized and tumors were collected.
A total of 0.1-0.2×10^6 cells per sample were stained for Live/Dead staining followed by fixation and permeabilization. For IFNγ and granzyme B (Gzm B) staining, BD Cytofix/Cytoperm (catalog no. 51-2090KZ) and BD Perm/Wash (catalog no. 51-2091KZ) buffer set were used according to the manufacturer's instructions (BD Pharmingen). CD8^+ T cells from tumor samples were stained similarly. Data acquisition was performed on a BD LSR II flow cytometer using the software FACS Diva v.9.0. Results were analyzed using FlowJo software (TreeStar). MitoFM, a green-fluorescent mitochondrial stain, which localizes to mitochondria, was used as described previously (Sukumar et al., Cell Metab 23 (1): 63-76, 2016).

pMel-1 CD8 T cells [3] = type: cell-based
Protocol: For ACT experiments, CD8+ T cells from pMel-1 mice were activated with gp100 peptide with and without PARPi for 48 h. Based on their CD44 and CD62L expression, cells were sorted by FACS and transferred into 9-day-old B16F10 melanoma-bearing mice tumor-bearing mice (1×10^6 cells per mouse). Tumor growth and survival of mice were monitored.
A total of 0.1-0.2×10^6 cells per sample were stained for Live/Dead staining followed by fixation and permeabilization. […] CD8^+ T cells from tumor samples were stained similarly. Data acquisition was performed on a BD LSR II flow cytometer using the software FACS Diva v.9.0. Results were analyzed using FlowJo software (TreeStar). […]

WT CD8 T cells = WT CD8 T cells activated with anti-CD3/CD28; type: cell-based, mouse; settings: anti-CD3/CD28 activation in the presence of PARPi, 48 h
pMel-1 CD8 T cells [4] = assay: RT-PCR gene expression in TCM^sup versus TCM; type: cell-based, mouse; settings: TCM^sup vs gp100-induced TCM
From the text: Total RNA was extracted from gp100 or gp100 plus PARPi-activated CD8 T cells using the RNeasy Mini Kit (Qiagen, catalog no. 74004) following the manufacturer's instructions. The extraction included a digestion step with DNase I to prevent subsequent amplification of genomic DNA. One μg total RNA was subjected to single-strand complementary DNA synthesis using High-Capacity cDNA Reverse Transcription Kit (Thermo Fisher, catalog no. 4368814). The Taqman® gene expression assay from Applied Biosystems was used for qrtPCR, and primer pairs (catalog no. 4331182) from Applied Biosystems were used to detect gene expression of Eomes (#Mm01351984-m1), Acot1 (#Mm0162271-S1), Cpt1a (#Mm0123183-m1), Klf2 (#Mm00500486-g1), CD62L (#Mm00441291-m1),CCR7 (#Mm99999130-s1), and Cdkn1b (#Mm00438168-m1). Data were procured using StepOnePlus Real-Time PCR System from Applied Biosystems and normalized to the geometric mean of the housekeeping gene beta-actin (β-actin) (#Mm02619580-g1).

O=C(c1cc(Cc2n[nH]c(=O)c3ccccc23)ccc1F)N1CCN(C(=O)C2CC2)CC1 [olaparib]
tumor growth and survival, enhancement of anti-tumor immune response of the vaccine (TC-1 tumors; TC-1, PARPi 50 mg/kg IP daily in combination with HPV E7 vaccine): significantly retarding tumor growth and prolonging survival
anti-tumor effect after depletion of CD8 T cells (TC-1 tumors; TC-1, PARPi with vaccine, CD8 T cell depleting antibodies): loss of the anti-tumor effect
mice survived (TC-1 tumors; PARPi added to the vaccine (HPV E7)): 90%
mice survived (TC-1 tumors; treatment alone): 10%
frequency of Ki67+ CD8 T cells ([1]; olaparib plus anti-PDL1 (Durvalumab), pre vs post treatment): decrease
CD62L expression in TCM CD8 T cells ([1]; olaparib plus anti-PDL1 (Durvalumab), some patients): increased
patients with an increase in TCM CD8 T cells ([1]; ovarian cancer patients treated with olaparib plus anti-PDL1 (Durvalumab), pre vs post treatment): 63%
number of total and antigen-specific CD8+ T cells in TME ([2]; TC1, vaccinated in the presence of PARPi vs either treatment alone): significant increase
IFNγ+ and granzyme B+ total and antigen-specific CD8+ T cells ([2]; TC-1, PARPi given with the vaccine): enhanced functionality
CD44hiCD62Lhi CD8 T cells within the TCM compartment in the TME ([2]; TC-1, PARPi in combination with vaccine): appearance of a distinct population
vaccine-induced total and antigen-specific effector (TEM) and central memory (TCM) CD8 T cells in the TME ([2]; TC-1, PARPi with vaccine): increased
proliferation of CD8 T cells as determined by Ki67 expression ([2]; TC-1 TME): significant decrease
toxicity (percentage of live cells) (pMel-1 CD8 T cells [3]; 48 h time point): did not show any significant toxicity
phenotype of CD44intCD62Lint intermediate population (pMel-1 CD8 T cells [3]; 96 h after PARPi treatment): shifted more toward CD44^hiCD62L^hi population
expression of memory markers Eomes, CCR7 and Bcl2 (pMel-1 CD8 T cells [3]; CD44hiCD62Lhi population compared to TCM, 48 h): significantly increased
mitochondrial mass (MitoFM) (pMel-1 CD8 T cells [3]; TCM^sup cells): increase
PGC1α expression (pMel-1 CD8 T cells [3]; TCM^sup cells vs TCM from gp100): increase
level of γH2AX (pMel-1 CD8 T cells [3]; activated pMel-1 CD8 T cells): increase
IFNγ and Gzm B in PARPi-induced CD44hiCD62Lhi cells (pMel-1 CD8 T cells [3]; compared to TCM, 48 h): significantly higher
IFNγ and Gzm B expression on activated CD8 T cells (pMel-1 CD8 T cells [3]; compared to gp100 alone, 48 h): significant increase
cell cycle (pMel-1 CD8 T cells [3]; gp100-activated, 48 h): arrested in the G2/M phase
proliferation capacity (Ki67) (pMel-1 CD8 T cells [3]; gp100-activated, 48 h): significantly reduced
percentage of CD44hiCD62Lhi TCM CD8 T cell population (pMel-1 CD8 T cells [3]; gp100-activated, 48 h of treatment, for PARPi concentration-dependent): increase
generation of the CD44hiCD62Lhi population (WT CD8 T cells): also seen
FOXO1-regulated memory genes (Cd62l, Klf2, Tcf7, Ccr7) (pMel-1 CD8 T cells [4]): upregulated
expression of Acot1 and Cpt1α (pMel-1 CD8 T cells [4]): significantly higher
